Data reported in ChEMBL document CHEMBL3400074, “Development of 2-amino-5-phenylthiophene-3-carboxamide derivatives as novel inhibitors of Mycobacterium tuberculosis DNA GyrB domain” (Bioorg Med Chem, 2015).

Key:
[1] = Cytotoxicity against mouse RAW264.7 cells at 100 uM after 48 hrs by MTT assay; type: cell-based; details: read-out: INH
[2] = molecular target: DNA gyrase subunit B (Mycobacterium smegmatis, UniProt P0C559); test: Inhibition of Mycobacterium smegmatis DNA GyrB domain assessed as inhibition of inorganic phosphate release after 100 mins at room temperature by ATPase assay; design: species or system Mycolicibacterium smegmatis
DNA gyrase subunit B, sequence (P0C559 whole entry, the tested form may be a part): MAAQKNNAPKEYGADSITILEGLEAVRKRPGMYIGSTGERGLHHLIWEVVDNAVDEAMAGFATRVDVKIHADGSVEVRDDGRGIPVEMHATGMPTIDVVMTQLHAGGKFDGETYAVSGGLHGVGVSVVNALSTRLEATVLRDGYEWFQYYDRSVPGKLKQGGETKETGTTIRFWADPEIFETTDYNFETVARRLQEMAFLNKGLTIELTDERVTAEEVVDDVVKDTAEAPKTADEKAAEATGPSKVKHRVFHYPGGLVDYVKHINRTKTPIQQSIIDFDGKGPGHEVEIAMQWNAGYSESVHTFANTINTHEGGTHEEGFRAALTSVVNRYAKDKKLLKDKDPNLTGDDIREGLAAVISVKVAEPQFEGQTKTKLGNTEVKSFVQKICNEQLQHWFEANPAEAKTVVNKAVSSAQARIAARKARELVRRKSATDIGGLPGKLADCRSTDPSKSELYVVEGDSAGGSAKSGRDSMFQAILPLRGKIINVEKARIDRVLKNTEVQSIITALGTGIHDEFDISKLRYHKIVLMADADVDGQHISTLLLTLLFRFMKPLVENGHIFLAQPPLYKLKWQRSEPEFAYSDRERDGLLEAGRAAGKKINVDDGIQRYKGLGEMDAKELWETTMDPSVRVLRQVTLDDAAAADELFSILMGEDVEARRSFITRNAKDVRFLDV

[3] = Inhibition of Mycobacterium tuberculosis DNA GyrA/B heterotetramer assessed as inhibition of pBR322 supercoiling after 30 mins by gel electrophoresis
[4] = molecular target: DNA gyrase subunit B (Mycobacterium smegmatis) (UniProt P0C559); test: Binding affinity to Mycobacterium smegmatis DNA GyrB domain assessed as change in melting temperature by differential scanning fluorimetry; details: Mycolicibacterium smegmatis
DNA gyrase subunit B (Mycobacterium smegmatis), sequence (P0C559 2-675 limits assumed): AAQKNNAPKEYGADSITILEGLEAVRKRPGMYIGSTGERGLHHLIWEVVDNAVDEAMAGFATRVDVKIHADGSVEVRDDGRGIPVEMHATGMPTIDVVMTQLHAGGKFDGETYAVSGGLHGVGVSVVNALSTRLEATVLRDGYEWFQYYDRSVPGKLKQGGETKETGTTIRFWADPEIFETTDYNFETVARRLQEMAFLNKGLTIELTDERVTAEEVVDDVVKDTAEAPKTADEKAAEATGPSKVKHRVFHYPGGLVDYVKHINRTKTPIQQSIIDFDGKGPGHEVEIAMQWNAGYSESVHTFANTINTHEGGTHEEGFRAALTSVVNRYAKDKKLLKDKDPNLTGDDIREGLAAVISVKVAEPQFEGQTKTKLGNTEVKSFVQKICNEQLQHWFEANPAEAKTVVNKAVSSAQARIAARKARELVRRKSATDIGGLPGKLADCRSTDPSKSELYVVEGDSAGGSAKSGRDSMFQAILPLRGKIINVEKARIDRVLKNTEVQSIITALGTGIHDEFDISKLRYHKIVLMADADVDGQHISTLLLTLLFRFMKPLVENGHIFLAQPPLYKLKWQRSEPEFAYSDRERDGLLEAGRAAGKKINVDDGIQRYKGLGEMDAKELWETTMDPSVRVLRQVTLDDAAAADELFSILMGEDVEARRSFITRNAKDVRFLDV

Compound	cytotoxicity at 48 h, 100 µM [1] [%]	IC50 [2] [µM]	IC50 [3] [µM]	ΔTm [4] [°C]
NC(=O)c1cc(-c2ccccc2)sc1NC(=O)c1ccc(Oc2ccccc2)cc1	35.8	17.3	8.85	
NC(=O)c1cc(-c2ccccc2)sc1NC(=O)c1ccc([N+](=O)[O-])cc1	35.9	8.91	6.77	
NC(=O)c1cc(-c2ccccc2)sc1NC(=S)NCc1ccccc1	36.1	28.3	17.8	
CCC(=O)Nc1sc(-c2ccccc2)cc1C(N)=O	39.4	11.8	5.62	
CCCC(=O)Nc1sc(-c2ccccc2)cc1C(N)=O	39.8	3.57	3.14	
NC(=O)c1cc(-c2ccccc2)sc1NC(=O)Nc1ccccc1	37.3	1.83	1.32	
NC(=O)c1cc(-c2ccccc2)sc1NC(=O)c1ccccc1	37.6	0.86	0.76	2.5
NC(=O)c1cc(-c2ccccc2)sc1NC(=O)c1cnccn1	34.3	18.4	> 25	
Cc1ccc(NC(=O)Nc2sc(-c3ccccc3)cc2C(N)=O)cc1	37.6	24	> 25	
Cc1ccc(NC(=S)Nc2sc(-c3ccccc3)cc2C(N)=O)cc1	34.8	2.46	2.97	
NC(=O)c1cc(-c2ccccc2)sc1NC(=O)c1ccc(Cl)cc1	38.5	6.69	5.82	
CC(C)NC(=O)Nc1sc(-c2ccccc2)cc1C(N)=O	36.1	6.47	6.17	
NC(=O)c1cc(-c2ccccc2)sc1NC(=O)NCc1ccccc1	33	10.8	8.89	
CC(C)NC(=S)Nc1sc(-c2ccccc2)cc1C(N)=O	35.5	16.2	9.25	
NC(=O)c1cc(-c2ccccc2)sc1NC(=O)Nc1ccc(Cl)cc1	38.2	3.14	2.97	
NC(=O)c1cc(-c2ccccc2)sc1NC(=O)C1CCCCC1	39	10.2	9.83	
NC(=O)c1cc(-c2ccccc2)sc1NC(=S)Nc1ccc(F)cc1	32.1	48.9	> 25	
NC(=O)c1cc(-c2ccccc2)sc1NC(=O)c1cccc2ccccc12	36.8	28.6	> 25	
NC(=O)c1cc(-c2ccccc2)sc1NC(=S)Nc1ccc(Br)cc1	35.6	10.9	9.63	
NC(=O)c1cc(-c2ccccc2)sc1NC(=O)Nc1ccc(Br)cc1	37.6	12.2	> 25	
NC(=O)c1cc(-c2ccccc2)sc1NC(=O)C1CCCC1	39.7	42.2	> 25	
NC(=O)c1cc(-c2ccccc2)sc1NC(=O)c1cccs1		1.5	1.16	
NC(=O)c1cc(-c2ccccc2)sc1NC(=S)Nc1ccccc1	32.8	70.3	> 25	
NC(=O)c1cc(-c2ccccc2)sc1NC(=S)Nc1ccc([N+](=O)[O-])cc1	40.3	32.5	> 25	
NC(=O)c1cc(-c2ccccc2)sc1NC(=O)Nc1ccc(F)cc1	33.7	11.5	9.88	
NC(=O)c1cc(-c2ccccc2)sc1NC(=S)Nc1ccc(Cl)cc1	36.1	71.4	> 25	
NC(=O)c1cc(-c2ccccc2)sc1NC(=O)c1cc2ccccc2[nH]1	36.2	22	18.2	
NC(=O)c1cc(-c2ccccc2)sc1NC(=O)Nc1ccc([N+](=O)[O-])cc1	37.3	12.8	10.9	
CO[C@@H]1[C@@H](OC(N)=O)[C@@H](O)[C@H](Oc2ccc3c(O)c(NC(=O)c4ccc(O)c(CC=C(C)C)c4)c(=O)oc3c2C)OC1(C)C [NOVOBIOCIN]	81.7			
CC(=O)Nc1sc(-c2ccccc2)cc1C(N)=O	37.5	19.1	11.8	
